{"source": "patent US9862746B2", "about": "“Compositions and methods relating to hindering DOT1L recruitment by MLL-fusion proteins” (The Regents of the University of Michigan, priority 2013, dated 2018)", "target": "T1, ENL L550E (Homo sapiens, UniProt Q03111, L550E)", "T1 construct": "MBP-ENL (489-559) L550E; made in house; host or cells: Escherichia coli BL21 (DE3)", "T1 sequence (Q03111 489-559 L550E)": "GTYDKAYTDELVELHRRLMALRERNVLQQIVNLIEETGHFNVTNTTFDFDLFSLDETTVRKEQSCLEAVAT", "assay": "FP saturation binding of Flu-DOT1L 10 mer to mutated ENL", "method": "To further map and determined the residues in C-terminal domain of ENL that are essential for the interaction with DOT1L (so called “hot-spots”), an ENL mutant, L550E (FIG. 7A), was prepared which was reported to block the transforming capacity of MLL-ENL fusion protein (see, e.g., Yokoyama, A., et al., (2010) Cancer cell 17, 198-212).\nFluorescence polarization (FP) assay—FP experiments were performed in 96-well, black, round-bottom plates (Corning) using the plate reader (Biotek H1 hybrid). Fluorescein tagged DOT1L 10 mer peptide (Flu-DOT1L) was used as a fluorescent probe in the FP based binding assays. […] The plate was mixed on a shaker and incubated at room temperature to reach equilibrium. The polarization values in milli-polarization units (mP) were measured at an excitation wavelength at 485 nm and an emission wavelength at 530 nm. Polarization data were analyzed using GraphPad Prism 5.0 by non-linear fitting with a one-site binding model.", "note": "Where a SMILES comes first, the peptide text is derived from it. [ ]: non-standard residue; d: D form. The star is where a group is joined. 5FAM = O=C1OC2(c3ccc(O)cc3Oc3cc(O)ccc32)c2ccc(C(=O)*)cc21; βAla = NCCC(=O)O"}
{"smiles": "CC[C@H](C)[C@H](NC(=O)[C@@H]1CCCN1C(=O)[C@H](CC(C)C)NC(=O)CCNC(=O)CCNC(=O)[C@H](CCCCNC(=O)c1ccc2c(c1)C(=O)OC21c2ccc(O)cc2Oc2cc(O)ccc21)NC(C)=O)C(=O)N[C@@H](CO)C(=O)N[C@H](C(=O)N1CCC[C@H]1C(=O)N[C@@H](CC(C)C)C(=O)N[C@@H](CO)C(=O)N[C@H](C(=O)N[C@H](C(N)=O)C(C)C)[C@@H](C)O)[C@@H](C)CC", "note": "[fluorescent labeled DOT1L 10-mer peptide] (Ac-K(5FAM)[βAla][βAla]LPISIPLSTV-NH2)", "values": [{"measurement": "binding to ENL L550E mutant protein", "value": "did not show binding"}]}
